Test results taken from patent US20160194299A1 (priority 2013, published 2016).
Values after ≈ are worked out from the molar mass of the structure shown.

What was measured:
Mtb [1] = assay: microbe, parasite or virus in culture; assay type: cell-based, Mycobacterium tuberculosis; details: for MIC: Mycobacterium tuberculosis, read-out: MIC (II)
Mtb [2] = assay: microbe, parasite or virus in culture; assay type: cell-based, Mycobacterium tuberculosis
Mtb [3] = assay: microbe, parasite or virus in culture; assay type: cell-based, Mycobacterium tuberculosis; remark: listed apart in the source
in vitro = details: human

Q: With `CCOC(=O)NC(=O)c1ccsc1NC(=O)c1csc(-c2ccncc2)n1` [Compound 2] as the molecule, how does the MIC (Mtb [1]) read?
A: 1 to 3 µg/mL (≈ 2.48 to 7.45 µM)

Q: With `CCOC(=O)NC(=O)c1ccsc1NC(=O)c1ccnc(NS(=O)(=O)c2ccc(C)cc2)c1` [Compound 153] as the molecule, how does the MIC (Mtb [1]) read?
A: > 3 µg/mL

Q: For `CCOC(=O)NC(=O)c1ccsc1NC(=O)c1nc2ccc(NC(=O)CNC(=O)OC(C)(C)C)cc2s1` [Compound 392], which “MIC (III)” value (Mtb [2]) is on record?
A: C (key: A: <5 μg/mL; B: 5-25 μg/mL; C: >25 μg/mL)

Q: What about the “LC50 (IV)” value (Vero cells) of the same molecule?
A: B (key: A: >50 μg/mL; B: 50-25 μg/mL; C: <25 μg/mL)

Q: What about the “MIC (I)” value (Mtb [3]) of the same molecule?
A: B (key: A: <1 μg/mL; B: 1-3 μg/mL; C: >3 μg/mL)

Q: Which MIC (Mtb [1]) does the source give for `CCOC(=O)NC(=O)c1ccsc1NC(=O)c1c(F)ccc(OC)c1F` [Compound 173] here?
A: > 3 µg/mL

Q: For `CCOC(=O)NC(=O)c1ccsc1NC(=O)c1cnc2[nH]ccc2c1` [Compound 159], which “MIC (II)” value (Mtb [1]) is on record?
A: C (key: A: <1 μg/mL; B: 1-3 μg/mL; C: >3 μg/mL)

Q: With `CCOC(=O)NC(=O)c1ccsc1NC(=O)c1ccc(OC)cc1` [Compound 174] as the molecule, how does the MIC (Mtb [1]) read?
A: > 3 µg/mL

Q: What does the source list for `O=C(NC(=O)c1ccsc1NC(=O)c1cn2ccccc2n1)OC1CCCC1` [Compound 348]?
A: MIC (III) (Mtb [2]): C (key: A: <5 μg/mL; B: 5-25 μg/mL; C: >25 μg/mL); LC50 (IV) (Vero cells): B (key: A: >50 μg/mL; B: 50-25 μg/mL; C: <25 μg/mL); MIC (I) (Mtb [3]): C (key: A: <1 μg/mL; B: 1-3 μg/mL; C: >3 μg/mL)

Q: For `NC(=O)c1cnn(-c2ccccc2)c1NC(=O)c1nc2ccccc2s1` [Compound 179], which MIC (Mtb [1]) is on record?
A: > 3 µg/mL

Q: Which MIC (Mtb [1]) does the source give for `CC(=O)Nc1cc(C(=O)Nc2sccc2C(=O)N2CCOCC2)ccn1` [Compound 181] here?
A: > 3 µg/mL

Q: Which results are given for `CCOC(=O)NC(=O)c1ccsc1NC(=O)c1n[nH]c2cc(C#N)ccc12` [Compound 128]?
A: MIC (III) (Mtb [2]): C (key: A: <5 μg/mL; B: 5-25 μg/mL; C: >25 μg/mL); LC50 (IV) (Vero cells): A (key: A: >50 μg/mL; B: 50-25 μg/mL; C: <25 μg/mL); MIC (I) (Mtb [3]): C (key: A: <1 μg/mL; B: 1-3 μg/mL; C: >3 μg/mL)

Q: For `CCOC(=O)NC(=O)c1ccsc1NC(=O)c1ccc2[nH]ncc2c1` [Compound 350], which “MIC (III)” value (Mtb [2]) is on record?
A: C (key: A: <5 μg/mL; B: 5-25 μg/mL; C: >25 μg/mL)

Q: And the “LC50 (IV)” value (Vero cells)?
A: B (key: A: >50 μg/mL; B: 50-25 μg/mL; C: <25 μg/mL)

Q: And the “MIC (I)” value (Mtb [3])?
A: C (key: A: <1 μg/mL; B: 1-3 μg/mL; C: >3 μg/mL)

Q: With `CCOC(=O)NC(=O)c1ccsc1NC(=O)c1cnc(N2CCOCC2)nc1` [Compound 152] as the molecule, how does the MIC (Mtb [1]) read?
A: > 3 µg/mL

Q: For `CCOC(=O)NC(=O)c1ccsc1NC(=O)c1ccnc(NC(=O)C(F)(F)F)c1` [Compound 193], which MIC (Mtb [1]) is on record?
A: > 3 µg/mL

Q: Which “LC50 (IV)” value (Vero cells) does the source give for `O=C(NC(=O)c1ccsc1NC(=O)c1nc2ccccc2s1)OCCF` [Compound 20] here?
A: C (key: A: >50 μg/mL; B: 50-25 μg/mL; C: <25 μg/mL)

Q: And the “MIC (I)” value (Mtb [3])?
A: A (key: A: <1 μg/mL; B: 1-3 μg/mL; C: >3 μg/mL)

Q: For `CC(=O)Nc1cc(C(=O)Nc2sccc2C(=O)N(C)C)ccn1` [Compound 205], which MIC (Mtb [1]) is on record?
A: > 3 µg/mL

Q: For `CCOC(=O)NC(=O)c1ccsc1NC(=O)c1ccc2[nH]nnc2c1` [Compound 363], which “MIC (III)” value (Mtb [2]) is on record?
A: C (key: A: <5 μg/mL; B: 5-25 μg/mL; C: >25 μg/mL)

Q: And the “LC50 (IV)” value (Vero cells)?
A: B (key: A: >50 μg/mL; B: 50-25 μg/mL; C: <25 μg/mL)

Q: What about the “MIC (I)” value (Mtb [3]) of the same molecule?
A: C (key: A: <1 μg/mL; B: 1-3 μg/mL; C: >3 μg/mL)

Q: For `CC(=O)Nc1cc(C(=O)Nc2nnc(C(F)(F)F)s2)ccn1` [Compound 190], which MIC (Mtb [1]) is on record?
A: > 3 µg/mL

Q: Which MIC (Mtb [1]) does the source give for `CNC(=O)c1ccsc1NC(=O)c1ccnc(NC(C)=O)c1` [Compound 183] here?
A: > 3 µg/mL

Q: With `CCOC(=O)NC(=O)c1ccsc1NC(=O)c1ccnc(C(F)(F)F)c1` [Compound 178] as the molecule, how does the MIC (Mtb [1]) read?
A: > 3 µg/mL

Q: What does the source list for `CCOC(=O)NC(=O)c1ccsc1NC(=O)c1ccnc(NC(C)=O)c1` [Compound 13]?
A: MIC (Mtb [1]): < 1 µg/mL; CC50 (in vitro): > 50 µg/mL

Q: With `CCOC(=O)NC(=O)c1ccsc1NC(=O)c1ccc(C#N)cc1` [Compound 207] as the molecule, how does the MIC (Mtb [1]) read?
A: > 3 µg/mL

Q: With `COC(=O)NC(=O)c1ccsc1NC(=O)c1ccc(S(=O)(=O)N2CCCC2)cc1` [Compound 5] as the molecule, how does the MIC (Mtb [1]) read?
A: < 1 µg/mL

Q: With `CCOC(=O)NC(=O)c1ccsc1NC(=O)c1ccnc(OCC)c1` [Compound 149] as the molecule, how does the MIC (Mtb [1]) read?
A: > 3 µg/mL

Q: With `CCOC(=O)NC(=O)c1ccsc1NC(=O)c1nc(C)cs1` [Compound 161] as the molecule, how does the MIC (Mtb [1]) read?
A: > 3 µg/mL

Q: Which “MIC (III)” value (Mtb [2]) does the source give for `O=C(Nc1sccc1C(=O)N1CCSCC1)c1nc2ccccc2s1` [Compound 261] here?
A: C (key: A: <5 μg/mL; B: 5-25 μg/mL; C: >25 μg/mL)

Q: And the “LC50 (IV)” value (Vero cells)?
A: A (key: A: >50 μg/mL; B: 50-25 μg/mL; C: <25 μg/mL)

Q: And the “MIC (I)” value (Mtb [3])?
A: C (key: A: <1 μg/mL; B: 1-3 μg/mL; C: >3 μg/mL)

Q: Which MIC (Mtb [1]) does the source give for `CC(=O)Nc1cc(C(=O)Nc2sccc2S(=O)(=O)c2ccccn2)ccn1` [Compound 194] here?
A: > 3 µg/mL

Q: For `CCOC(=O)NC(=O)c1ccsc1NC(=O)c1cc2ccccc2n1C` [Compound 195], which MIC (Mtb [1]) is on record?
A: > 3 µg/mL
